The source of these data is patent US20140155445A1, “Compounds and Methods for Treating Cancer and Diseases of the Central Nervous System” (Osta Biotechnologies Inc., priority 2007, published 2014).

Structures can show the parent of a compound that is named as a salt. Where two headings read alike, the source gives them in different places.

The target of one experiment is T1, HO-1 (rat spleen) (Rattus norvegicus, UniProt P06762).
T1 construct: Spleen microsomes were used as a source of HO-1; from tissue; host or cells: spleen microsomal fraction of adult male Sprague-Dawley rats
T1 sequence (P06762 1-289): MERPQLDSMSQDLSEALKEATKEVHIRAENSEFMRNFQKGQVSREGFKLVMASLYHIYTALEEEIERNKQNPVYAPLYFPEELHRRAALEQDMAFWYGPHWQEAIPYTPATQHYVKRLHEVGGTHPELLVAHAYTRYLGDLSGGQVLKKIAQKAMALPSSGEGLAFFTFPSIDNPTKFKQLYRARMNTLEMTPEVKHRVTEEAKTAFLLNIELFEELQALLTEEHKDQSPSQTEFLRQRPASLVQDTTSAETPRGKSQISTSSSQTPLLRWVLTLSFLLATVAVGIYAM
In words: HO enzymatic activity in rat spleen microsomal fraction (CO formed from methemalbumin, gas chromatography). The experiment is classed as biochemical.

In another experiment the target is T2, HO-2 (rat brain) (Rattus norvegicus, UniProt P23711).
T2 construct: brain microsomes were used as a source of HO-2; from tissue; host or cells: brain microsomal fraction of adult male Sprague-Dawley rats
T2 sequence (P23711 1-315): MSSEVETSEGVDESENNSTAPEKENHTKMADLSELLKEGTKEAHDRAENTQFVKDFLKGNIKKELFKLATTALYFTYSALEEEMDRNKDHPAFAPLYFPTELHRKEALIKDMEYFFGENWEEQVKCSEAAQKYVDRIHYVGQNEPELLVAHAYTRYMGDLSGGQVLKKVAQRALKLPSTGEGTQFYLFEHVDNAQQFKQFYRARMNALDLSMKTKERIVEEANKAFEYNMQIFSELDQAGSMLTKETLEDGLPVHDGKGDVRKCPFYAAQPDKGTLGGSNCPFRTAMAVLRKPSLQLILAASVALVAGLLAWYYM
Briefly: HO enzymatic activity in rat brain microsomal fraction (CO formed from methemalbumin, gas chromatography). Type of experiment: biochemical.

Where [1] appears, read: rat spleen microsomes, average ± standard deviation of replicate experiments, read-out: IC50 HO-1 (rat spleen)/μM.
[2] abbreviates: rat brain microsomes, average ± standard deviation of replicate experiments, read-out: IC50 HO-2 (rat brain)/μM.

Regarding `C[C@@H]1CO[C@@](CCc2ccccc2)(Cn2ccnc2)O1` [(2R,4R)-2-[2-(4-phenyl)ethyl]-2-[(1H-imidazol-1-yl)methyl]-4-methyl-1,3-dioxolane hydrochloride], the IC50 on HO-1 (rat spleen) (setting [1]) is 2 ± 1 µM; on HO-2 (rat brain) (setting [2]), more than 43 µM.

Consider `Clc1ccc(CC[C@@]2(Cn3ccnc3)OC[C@@H](CSc3ccc4ccccc4c3)O2)cc1` [(2R,4S)-1-[2-[2-(4-chloro-phenyl)-ethyl]-4-(naphthalen-2-ylsulfanylmethyl)-[1,3]dioxolan-2-ylmethyl]-1H-imidazole hydrochloride], for which the IC50 at HO-1 (rat spleen) (setting [1]) worked out at 0.9 ± 0.1 µM; at HO-2 (rat brain) (setting [2]), 30 ± 4 µM.

Regarding `Clc1ccc(CC[C@@]2(Cn3ccnc3)OC[C@@H](CSc3ccccc3Br)O2)cc1` [(2R,4S)-1-{4-(2-bromo-phenylsulfanylmethyl)-2-[2-(4-chloro-phenyl)-ethyl]-[1,3]dioxolan-2-ylmethyl}-1H-imidazole hydrochloride], the IC50 at HO-1 (rat spleen) (setting [1]) was 6 ± 1 µM; on HO-2 (rat brain) (setting [2]) it was 12.3 ± 0.5 µM.

Take `Clc1ccc(CC[C@@]2(Cn3ccnc3)OC[C@@H](CSc3cccc(Br)c3)O2)cc1` [(2R,4S)-1-{4-(3-bromo-phenylsulfanylmethyl)-2-[2-(4-chloro-phenyl)-ethyl]-[1,3]dioxolan-2-ylmethyl}-1H-imidazole hydrochloride]: the figures for the IC50 at HO-1 (rat spleen) (setting [1]) and at HO-2 (rat brain) (setting [2]) were 5 ± 2 µM and 22 ± 9 µM, respectively.

Turning to `ClC[C@@H]1CO[C@@](CCc2ccc(Cl)cc2)(Cn2ccnc2)O1` [(2R,4S)-1-{4-chloromethyl-2-[2-(4-chloro-phenyl)-ethyl]-[1,3]dioxolan-2-ylmethyl}-1H-imidazole hydrochloride], the IC50 amounted to 3.5 ± 0.1 µM at HO-1 (rat spleen) (setting [1]) and 122 ± 30 µM at HO-2 (rat brain) (setting [2]).

With `CSC[C@@H]1CO[C@@](CCc2ccc(Cl)cc2)(Cn2ccnc2)O1` [(2R,4S)-2-[2-(4-chlorophenyl)ethyl]-2-[(1H-imidazol-1-yl)methyl]-4-[(methylthio)methyl]-1,3-dioxolane hydrochloride], the results for the IC50 at HO-1 (rat spleen) (setting [1]) and on HO-2 (rat brain) (setting [2]) were 9 ± 2 µM and 19 ± 7 µM, respectively.

As for `Cc1ccc(S(=O)(=O)OC[C@@H]2CO[C@@](CCc3ccc(Cl)cc3)(Cn3ccnc3)O2)cc1` [(2R,4S)-2-[2-(4-chlorophenyl)ethyl]-2-[(1H-imidazol-1-yl)methyl]-4-[(p-toluenesulfonyloxy)meth-yl]-1,3-dioxolane], the values for the IC50 at HO-1 (rat spleen) and against HO-2 (rat brain) were 6 ± 2 µM and 3 ± 1 µM, respectively.

Consider `Clc1ccc(CC[C@@]2(Cn3ccnc3)OC[C@@H](CSc3ccccc3)O2)cc1` [(2R,4S)-2-[2-(4-chlorophenyl)ethyl]-2-[(1H-imidazol-1-yl)methyl]-4-[(phenylthio)methyl]-1,3-dioxolane hydrochloride], for which the IC50 is 1.03 ± 0.07 µM at HO-1 (rat spleen) (setting [1]) and 34 ± 12 µM at HO-2 (rat brain) (setting [2]).

Regarding `Nc1ccccc1SC[C@@H]1CO[C@@](CCc2ccc(Cl)cc2)(Cn2ccnc2)O1` [(2R,4S)-2-[2-(4-chlorophenyl)ethyl]-2-[(1H-imidazol-1-yl)methyl]-4-[{(2-aminophenyl)thio}meth-yl]-1,3-dioxolane dihydrochloride], the IC50 stood at 4 ± 2 µM at HO-1 (rat spleen) (setting [1]) and 42 ± 28 µM on HO-2 (rat brain) (setting [2]).

Turning to `Nc1cccc(SC[C@@H]2CO[C@@](CCc3ccc(Cl)cc3)(Cn3ccnc3)O2)c1` [(2R,4S)-2-[2-(4-chlorophenyl)ethyl]-2-[(1H-imidazol-1-yl)methyl]-4-[{(3-aminophenyl]-4-[{(3-aminophenyl)thio}meth-yl]-1,3-dioxolane hydrochloride], the IC50 on HO-1 (rat spleen) (setting [1]) was 4 ± 2 µM; at HO-2 (rat brain) (setting [2]) it was 6 ± 1 µM.

As to `Nc1ccc(SC[C@@H]2CO[C@@](CCc3ccc(Cl)cc3)(Cn3ccnc3)O2)cc1` [(2R,4S)-2-[2-(4-chlorophenyl)ethyl]-2-[(1H-imidazol-1-yl)methyl]-4-[{(4-aminophenyl)thio}meth-yl]-1,3-dioxolane hydrochloride], the IC50 on HO-1 (rat spleen) (setting [1]) came out at 0.33 ± 0.07 µM; at HO-2 (rat brain) (setting [2]) it was 8 ± 1 µM.

For the compound `Clc1ccc(CC[C@@]2(Cn3ccnc3)OC[C@@H](CSc3ccc(Br)cc3)O2)cc1` [(2R,4S)-2-[2-(4-chlorophenyl)ethyl]-2-[(1H-imidazol-1-yl)methyl]-4-[{(4-bromophenyl)thio}meth-yl]-1,3-dioxolane hydrochloride], the IC50 came to 2.1 ± 0.9 µM on HO-1 (rat spleen) (setting [1]) and 2.4 ± 0.1 µM at HO-2 (rat brain) (setting [2]).

Turning to `Clc1ccc(CC[C@@]2(Cn3ccnc3)OC[C@@H](CSc3ccc(Cl)cc3)O2)cc1` [(2R,4S)-2-[2-(4-chlorophenyl)ethyl]-2-[(1H-imidazol-1-yl)methyl]-4-[{(4-chlorophenyl)thio}meth-yl]-1,3-dioxolane hydrochloride], the IC50 at HO-1 (rat spleen) (setting [1]) was found to be 2.8 ± 0.4 µM; at HO-2 (rat brain) (setting [2]), 12 ± 5 µM.

On to `Fc1ccc(SC[C@@H]2CO[C@@](CCc3ccc(Cl)cc3)(Cn3ccnc3)O2)cc1` [(2R,4S)-2-[2-(4-chlorophenyl)ethyl]-2-[(1H-imidazol-1-yl)methyl]-4-[{(4-fluorophenyl)thio}meth-yl]-1,3-dioxolane hydrochloride], for which the IC50 worked out at 2.2 ± 0.2 µM on HO-1 (rat spleen) (setting [1]) and 5 ± 4 µM on HO-2 (rat brain) (setting [2]).

Consider `Oc1ccc(SC[C@@H]2CO[C@@](CCc3ccc(Cl)cc3)(Cn3ccnc3)O2)cc1` [(2R,4S)-2-[2-(4-chlorophenyl)ethyl]-2-[(1H-imidazol-1-yl)methyl]-4-[{(4-hydroxyphenyl)thio}methyl]-1,3-dioxolane], for which the figures for the IC50 on HO-1 (rat spleen) (setting [1]) and at HO-2 (rat brain) (setting [2]) were 1.59 ± 0.03 µM and 7 ± 2 µM, respectively.

`COc1ccc(SC[C@@H]2CO[C@@](CCc3ccc(Cl)cc3)(Cn3ccnc3)O2)cc1` [(2R,4S)-2-[2-(4-chlorophenyl)ethyl]-2-[(1H-imidazol-1-yl)methyl]-4-[{(4-methoxyphenyl)thio}methyl]-1,3-dioxolane hydrochloride]: the figures for the IC50 at HO-1 (rat spleen) (setting [1]) and on HO-2 (rat brain) (setting [2]) were 0.7 ± 0.3 µM and 2.5 ± 0.4 µM, respectively.

As to `O=[N+]([O-])c1ccc(SC[C@@H]2CO[C@@](CCc3ccc(Cl)cc3)(Cn3ccnc3)O2)cc1` [(2R,4S)-2-[2-(4-chlorophenyl)ethyl]-2-[(1H-imidazol-1-yl)methyl]-4-[{(4-nitrophenyl)thio}meth-yl]-1,3-dioxolane hydrochloride], the IC50 was 6 ± 2 µM on HO-1 (rat spleen) (setting [1]) and 19 ± 2 µM at HO-2 (rat brain) (setting [2]).

Regarding `Clc1ccc(CC[C@@]2(Cn3ccnc3)OC[C@@H](CSc3ccncc3)O2)cc1` [(2R,4S)-2-[2-(4-chlorophenyl)ethyl]-2-[(1H-imidazol-1-yl)methyl]-4-[{(4-pyridinyl)thio}methyl]-1,3-dioxolane dihydrochloride], the IC50 at HO-1 (rat spleen) (setting [1]) turned out to be 25 ± 5 µM; at HO-2 (rat brain) (setting [2]), 69 ± 8 µM.

For the compound `C[C@H]1CO[C@@](CCc2ccc(Cl)cc2)(Cn2ccnc2)O1` [(2R,4S)-2-[2-(4-chlorophenyl)ethyl]-2-[(1H-imidazol-1-yl)methyl]-4-methyl-1,3-dioxolane hydrochloride], the results for the IC50 on HO-1 (rat spleen) (setting [1]) and against HO-2 (rat brain) were 2.6 ± 0.4 µM and more than 100 µM, respectively.

On to `FC(F)(F)c1ccc(SC[C@@H]2CO[C@@](CCc3ccc(Cl)cc3)(Cn3ccnc3)O2)nc1` [(2R,4S)-2-[2-(4-chlorophenyl)ethyl]-2-[(1H-imidazol-1-yl)methyl]-4[{(5-trifluoromethyl-pyridin-2-yl)ethio}methyl]-1,3-dioxolane hydrochloride], for which the IC50 on HO-1 (rat spleen) (setting [1]) came to 2.1 ± 0.6 µM; on HO-2 (rat brain) (setting [2]) it was 16 ± 8 µM.

Regarding `Cc1ccc(S(=O)(=O)OC[C@H]2CO[C@](CCc3ccc(Cl)cc3)(Cn3ccnc3)O2)cc1` [(2S,4R)-2-[2-(4-chlorophenyl)ethyl]-2-[(1H-imidazol-1-yl)methyl]-4-[(p-toluenesulfonyloxy)meth-yl]-1,3-dioxolane], the results for the IC50 against HO-1 (rat spleen) and at HO-2 (rat brain) were 17 ± 1 µM and 120 ± 34 µM, respectively.
